Consider 2 compounds from US9670221B2, “Furopyridines as bromodomain inhibitors” (GlaxoSmithKline Intellectual Property (No.2) Limited, priority 2013, dated 2017).

Experiment [1] has as its target T1, BRD4 BD1 (Homo sapiens, UniProt O60885, Y390A).
T1 construct: BRD4 (1-477) (Y97A) and (Y390A); made in house; host or cells: E. coli (pET15b vector)
Nature of the experiment: TR-FRET binding assay, BRD4 BD1 (mutant protein). The settings on record: BRD4 (1-477) mutant, 10 nM protein, read-out: pIC50 in the BRD4 BD1 assay (converted). Summed up:
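N-His-tagged human BRD4 (1-477) carrying Y390A, so binding reflects BD1 only, at 10 nM with Alexa Fluor647 ligand at Kd in HEPES pH7.4 buffer, 0.5% DMSO, 30 min RT, then 1.5 nM Eu anti-His. TR-FRET 665/615 ratio normalized to controls; pIC50 from four-parameter fit.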

Experiment [2] concerns Bromodomains BRD2, BRD3, BRD4 and BRDT (BD1/BD2 single residue mutants). Nature of the experiment: Binding of the fluoroligand to mutated versus non-mutated bromodomain. Set-up: species or system Human. The settings on record: single residue mutations in the acetyl lysine binding pocket. The protocol: Binding was assessed using a time resolved fluorescent resonance energy transfer binding assay. This utilises a 6 His purification tag at the N-terminal of the proteins as an epitope for an anti-6 His antibody labeled with Europium chelate (PerkinElmer AD0111) allowing binding of the Europium to the proteins which acts as the donor fluorophore. A small molecule, high affinity binder of the bromodomains BRD2, BRD3, BRD4 and BRDT has been labeled with Alexa Fluor647 (Reference Compound X) and this acts as the acceptor in the FRET pair.
The binding of the compounds of formula (I) to Bromodomains BRD2, BRD3, BRD4 and BRDT was assessed using mutated proteins to detect differential binding to either Binding Domain 1 (BD1) or Binding Domain 2 (BD2) on the bromodomain. These single residue mutations in the acetyl lysine binding pocket greatly lower the affinity of the fluoroligand (Reference Compound X) for the mutated domain (>1000 fold selective for the non-mutated domain). Therefore in the final assay conditions, binding of the fluoroligand to the mutated domain cannot be detected and subsequently the assay is suitable to determine the binding of compounds to the single non-mutated bromodomain. […]

Regarding `CC(=O)Nc1cc(-c2cn(C)c(=O)c3cc(CN4CCN(S(C)(=O)=O)[C@@H](C)C4)oc23)ccn1` [Example 108, (S)—N-(4-(5-methyl-2-((3-methyl-4-(methylsulfonyl)piperazin-1-yl)methyl)-4-oxo-4,5-dihydrofuro[3,2-c]pyridin-7-yl)pyridin-2-yl)acetamide], in experiment [1], the IC50 was no more than 100 nM.
On to `COc1ccc2c(c1)C(c1ccc(Cl)cc1)=N[C@@H](CC(=O)NCCCCCNC(=O)CCCCCC1(C)/C(=C/C=C/C=C/C3=[N+](CCCCS(=O)(=O)O)c4ccc(S(=O)(=O)O)cc4C3(C)C)N(CCCCS(=O)(=O)[O-])c3ccc(S(=O)(=O)O)cc31)c1nnc(C)n1-2` (some centres unmarked) [Reference Compound X], for which the “selectivity of the fluoroligand for the non-mutated domain over the mutated domain” value in experiment [2] is greater than 1000 fold.
